# Results: ChEMBL document CHEMBL1201862, “PubChem BioAssay data set” (2004)
#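 Values below derive from 48-hour exposures of cells grown in 96-well plates, with endpoints linearly interpolated between the two concentrations bracketing the appropriate inhibition level. GI50: concentration for 50% inhibition of growth.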 The source made the active and inactive calls. Rule as the data show it: active = GI50 up to about 1.1 µM and inactive = higher.
# Assays:
# Test in all cases: DTP human tumour cell line panel, 48 h
# OVCAR-8 = tested on: OVCAR-8
# COLO 205 = tested on: COLO 205
# TK-10 = tested on: TK-10
# SNB-75 = tested on: SNB-75
# 786-0 = tested on: 786-0
# NCI-H460 = tested on: NCI-H460
# UACC-62 = tested on: UACC-62
# NCI/ADR-RES = tested on: NCI/ADR-RES
# MDA-N = tested on: MDA-N
# HCT-116 = tested on: HCT-116
# M14 = tested on: M14
# T47D = tested on: T47D
# MDA-MB-231 = tested on: MDA-MB-231
# HOP-92 = tested on: HOP-92
# NCI-H226 = tested on: NCI-H226
# HT-29 = tested on: HT-29
# Malme-3M = tested on: Malme-3M
# IGROV-1 = tested on: IGROV-1
# SF-268 = tested on: SF-268
# RXF 393 = tested on: RXF 393
# HOP-62 = tested on: HOP-62
# U-251 = tested on: U-251
# A498 = tested on: A498
# KM12 = tested on: KM12
# SK-OV-3 = tested on: SK-OV-3
# SN12C = tested on: SN12C
# UACC-257 = tested on: UACC-257
# MOLT-4 = tested on: MOLT-4
# OVCAR-3 = tested on: OVCAR-3
# CAKI-1 = tested on: CAKI-1
# ACHN = tested on: ACHN
# SW-620 = tested on: SW-620
# SK-MEL-2 = tested on: SK-MEL-2
# SR = tested on: SR
# Hs-578T = tested on: Hs-578T
# MDA-MB-435 = tested on: MDA-MB-435
# RPMI-8226 = tested on: RPMI-8226
# HCT-15 = tested on: HCT-15
# SK-MEL-28 = tested on: SK-MEL-28
# A549 = tested on: A549
# CCRF-CEM = tested on: CCRF-CEM
# DU-145 = tested on: DU-145
# K562 = tested on: K562
# SK-MEL-5 = tested on: SK-MEL-5
# OVCAR-4 = tested on: OVCAR-4
# UO-31 = tested on: UO-31
# EKVX = tested on: EKVX
# OVCAR-5 = tested on: OVCAR-5
# BT-549 = tested on: BT-549
# NCI-H522 = tested on: NCI-H522
# PC-3 = tested on: PC-3
# MCF7 = tested on: MCF7
# SF-539 = tested on: SF-539
# NCI-H23 = tested on: NCI-H23
# HL-60 = tested on: HL-60
# SNB-19 = tested on: SNB-19
# HCC 2998 = tested on: HCC 2998
# LOX IMVI = tested on: LOX IMVI
# SF-295 = tested on: SF-295
smiles,measurement,setting,value
Cc1cc(N)ccc1C=O,GI50,OVCAR-8,> 100 µM (inactive)
same,GI50,COLO 205,> 100 µM (inactive)
same,GI50,TK-10,> 100 µM (inactive)
same,GI50,SNB-75,> 100 µM (inactive)
same,GI50,786-0,> 100 µM (inactive)
same,GI50,NCI-H460,> 100 µM (inactive)
same,GI50,UACC-62,> 100 µM (inactive)
same,GI50,NCI/ADR-RES,> 100 µM (inactive)
same,GI50,MDA-N,> 100 µM (inactive)
same,GI50,HCT-116,> 100 µM (inactive)
same,GI50,M14,> 100 µM (inactive)
same,GI50,T47D,> 100 µM (inactive)
same,GI50,MDA-MB-231,> 100 µM (inactive)
same,GI50,HOP-92,> 100 µM (inactive)
same,GI50,NCI-H226,> 100 µM (inactive)
same,GI50,HT-29,> 100 µM (inactive)
same,GI50,Malme-3M,> 100 µM (inactive)
same,GI50,IGROV-1,> 100 µM (inactive)
same,GI50,SF-268,> 100 µM (inactive)
same,GI50,RXF 393,> 100 µM (inactive)
same,GI50,HOP-62,> 100 µM (inactive)
same,GI50,U-251,> 100 µM (inactive)
same,GI50,A498,> 100 µM (inactive)
same,GI50,KM12,> 100 µM (inactive)
same,GI50,SK-OV-3,> 100 µM (inactive)
same,GI50,SN12C,> 100 µM (inactive)
same,GI50,UACC-257,> 100 µM (inactive)
same,GI50,MOLT-4,> 100 µM (inactive)
same,GI50,OVCAR-3,> 100 µM (inactive)
same,GI50,CAKI-1,> 100 µM (inactive)
same,GI50,ACHN,> 100 µM (inactive)
same,GI50,SW-620,> 100 µM (inactive)
same,GI50,SK-MEL-2,> 100 µM (inactive)
same,GI50,SR,> 100 µM (inactive)
same,GI50,Hs-578T,> 100 µM (inactive)
same,GI50,MDA-MB-435,> 100 µM (inactive)
same,GI50,RPMI-8226,> 100 µM (inactive)
same,GI50,HCT-15,> 100 µM
same,GI50,SK-MEL-28,> 100 µM (inactive)
same,GI50,A549,> 100 µM (inactive)
same,GI50,CCRF-CEM,> 100 µM (inactive)
same,GI50,DU-145,> 100 µM (inactive)
same,GI50,K562,> 100 µM (inactive)
same,GI50,SK-MEL-5,> 100 µM (inactive)
same,GI50,OVCAR-4,> 100 µM (inactive)
same,GI50,UO-31,> 100 µM (inactive)
same,GI50,EKVX,> 100 µM (inactive)
same,GI50,OVCAR-5,> 100 µM (inactive)
same,GI50,BT-549,> 100 µM (inactive)
same,GI50,NCI-H522,> 100 µM (inactive)
same,GI50,PC-3,> 100 µM (inactive)
same,GI50,MCF7,> 100 µM (inactive)
same,GI50,SF-539,> 100 µM (inactive)
same,GI50,NCI-H23,> 100 µM (inactive)
same,GI50,HL-60,> 100 µM (inactive)
same,GI50,SNB-19,> 100 µM (inactive)
same,GI50,HCC 2998,> 100 µM (inactive)
same,GI50,LOX IMVI,> 100 µM (inactive)
CC(C)(C)N1C(=O)c2ccccc2C1(O)C(F)(F)F (stereo unspecified),GI50,OVCAR-8,> 100 µM (inactive)
same,GI50,COLO 205,> 100 µM (inactive)
same,GI50,TK-10,> 100 µM (inactive)
same,GI50,SNB-75,24.4 µM (inactive)
same,GI50,786-0,> 100 µM (inactive)
same,GI50,NCI-H460,> 100 µM (inactive)
same,GI50,UACC-62,> 100 µM (inactive)
same,GI50,NCI/ADR-RES,> 100 µM (inactive)
same,GI50,MDA-N,84.9 µM (inactive)
same,GI50,HCT-116,> 100 µM (inactive)
same,GI50,M14,> 100 µM (inactive)
same,GI50,T47D,53.6 µM (inactive)
same,GI50,MDA-MB-231,> 100 µM (inactive)
same,GI50,HOP-92,> 100 µM (inactive)
same,GI50,NCI-H226,> 100 µM (inactive)
same,GI50,HT-29,> 100 µM (inactive)
same,GI50,Malme-3M,38 µM (inactive)
same,GI50,IGROV-1,74 µM (inactive)
same,GI50,SF-268,> 100 µM (inactive)
same,GI50,RXF 393,> 100 µM (inactive)
same,GI50,HOP-62,> 100 µM (inactive)
same,GI50,U-251,> 100 µM (inactive)
same,GI50,A498,> 100 µM (inactive)
same,GI50,KM12,> 100 µM (inactive)
same,GI50,SK-OV-3,> 100 µM (inactive)
same,GI50,SN12C,> 100 µM (inactive)
same,GI50,UACC-257,> 100 µM (inactive)
same,GI50,OVCAR-3,> 100 µM (inactive)
same,GI50,CAKI-1,> 100 µM (inactive)
same,GI50,ACHN,> 100 µM (inactive)
same,GI50,SW-620,> 100 µM (inactive)
same,GI50,SK-MEL-2,> 100 µM (inactive)
same,GI50,SR,> 100 µM (inactive)
same,GI50,Hs-578T,24 µM (inactive)
same,GI50,MDA-MB-435,> 100 µM (inactive)
same,GI50,RPMI-8226,76.6 µM (inactive)
same,GI50,HCT-15,> 100 µM
same,GI50,SK-MEL-28,> 100 µM (inactive)
same,GI50,A549,> 100 µM (inactive)
same,GI50,CCRF-CEM,> 100 µM (inactive)
same,GI50,DU-145,> 100 µM (inactive)
same,GI50,K562,20.5 µM (inactive)
same,GI50,SK-MEL-5,> 100 µM (inactive)
same,GI50,OVCAR-4,> 100 µM (inactive)
same,GI50,UO-31,> 100 µM (inactive)
same,GI50,EKVX,64 µM (inactive)
same,GI50,OVCAR-5,> 100 µM (inactive)
same,GI50,SF-295,> 100 µM (inactive)
same,GI50,BT-549,> 100 µM (inactive)
same,GI50,NCI-H522,64.4 µM (inactive)
same,GI50,PC-3,60.1 µM (inactive)
same,GI50,MCF7,> 100 µM (inactive)
same,GI50,SF-539,> 100 µM (inactive)
same,GI50,NCI-H23,> 100 µM (inactive)
same,GI50,HL-60,> 100 µM (inactive)
same,GI50,SNB-19,> 100 µM (inactive)
same,GI50,HCC 2998,> 100 µM (inactive)
same,GI50,LOX IMVI,> 100 µM (inactive)
